US10829796B2, “Bacteria identification and antimicrobial susceptibility test” (priority 2015, dated 2020)

Tested on: bacteria in clinical bovine mastitis milk samples
Experiment: Combined bacteria identification and antimicrobial susceptibility test (colour of wells, MIC) on clinical bovine mastitis milk samples
Format: cell-based
Method: Clinical bovine mastitis milk samples were collected by a vet clinic in South Island, New Zealand. Samples were stored in the freezer for several months and shipped frozen to the testing facility. In this Example, the term “clinical” means that dairy cows had clinical symptoms of an udder infection e.g. cow behaved unusual, milk clots, swollen udder among other typical symptoms. Testing was executed in microwell plate comprising of 24 wells (3×8 wells).
In addition, 20 ul of clinical mastitis sample was added to each well with a laboratory pipette.
(§1) Abbreviations • 1. 80 ul GC+10 ul Tell: 80 ul Giolitti Cantoni base broth+10 ul Tellurite solution (1%); • 2. 80 ul TSB/Esc/Fer Cit: 80 ul Tryptic soy broth containing 0.25% Esculin and 0.125% Ammonium Ferric Citrate; • 3. 80 ul TSB/Esc/Fer Cit+10 ul Genta: 80 ul Tryptic soy broth containing 0.25% Esculin and 0.125% Ammonium Ferric Citrate+10 ul of Gentamycin solution 10 mg/ml; • 4. 80 ul McC/PR25: 80 ul MacConkey broth (single strength) containing 0.0125% phenol red; and • 5. 80 ul TSB/PR25: 80 ul Tryptic soy broth containing 0.0125% phenol red. Bacteria Identification
Columns A to C and rows 1 and 2 were used for bacteria identification. A1: coagulase positive Staph; A2: Staphylococci; B1: Strep group D; B2: Strep group D; C1: general enrichment media (gram+ and gram-bacteria); C2: coliform bacteria.
Column A3 to A8: serial dilution of benzyl penicillin as potassium. Column B3 to B8: serial dilution of ceftiofur as hydrochloride. Column C3 to C8: serial dilution of cloxacillin as sodium. Antibiotic concentrations are listed as free form ranging between 4 ug/ml to 0.05 ug/ml.
Minimum inhibitory substance concentration (MIC) is here defined as the concentration if a colour change occurs between two wells (one well remains red with drug concentration 1, the other one yellow with drug concentration 2, whereas drug concentration 1 is larger than drug concentration 2) then the MIC is the value of drug concentration 1.
Table 21 indicates the microwell plate configuration #1; Drugs: Benzylpenicillin as potassium; Cloxacillin as sodium; Ceftiofur as hydrochloride; Drug concentration in each well (A3 to C8) is based on 80 μl composition+10 μl drug solution+20 μl clinical mastitis milk sample and equivalent to listed drug concentration in μg/ml; 20 ul of clinical bovine mastitis milk sample was added to each well (A1 to C8).
In addition, each well received one drop of clinical sample from a transfer pipette which was on average about 35 mg. This was determined through weighing the well plate prior and after the addition of clinical mastitis samples. This weight was then divided by 24.
as §1, with “•” for “Abbreviations •”, “red.” for “red. Bacteria Identification”
Columns A to C and rows 1 and 2 were used for bacteria identification. A1: coagulase positive Staph; A2: Staphylococci; B1: Strep Group D; B2: -; C1: general enrichment media (gram+ and gram-); C2: coliform bacteria.
Column A3 to A8: serial dilution of benzyl penicillin as potassium. Drug concentrations given as free form ranging between 4 ug/ml to 0.05 ug/ml. Column B3 to B8: serial dilution of ceftiofur as hydrochloride. Drug concentrations given as free form ranging between 4 ug/ml to 0.05 ug/ml. Column C3 to C8: serial dilution of cloxacillin as sodium. Drug concentrations given as free form ranging between 4 ug/ml to 0.05 ug/ml.

In the case of `Cc1onc(-c2ccccc2Cl)c1C(=O)N[C@@H]1C(=O)N2[C@@H]1SC(C)(C)[C@@H]2C(=O)O` [cloxacillin], the “Colour of media in each well” value (ID 5 to 8, T = 0 h (prior incubation, reference), plate configuration #2, drug 1 μg/ml) is reported as “red”, the “Colour of media in each well” value (ID 5 to 8, T = 0 h (prior incubation, reference), plate configuration #2, drug 2 μg/ml) is reported as “red” and the “Colour of media in each well” value (ID 5 to 8, T = 0 h (prior incubation, reference), plate configuration #2, drug 4 μg/ml) is reported as “red”. The “Colour of media in each well” value (ID 6, T = 23h, 37° C., plate configuration #2, drug 0.05 μg/ml (Table 31)) was “yellow”, the “Colour of media in each well” value (ID 6, T = 23h, 37° C., plate configuration #2, drug 0.1 μg/ml (Table 31)) was “yellow” and the “Colour of media in each well” value (ID 6, T = 23h, 37° C., plate configuration #2, drug 0.5 μg/ml (Table 31)) was “yellow”. The “Colour of media in each well” value (ID 6, T = 23h, 37° C., plate configuration #2, drug 1 μg/ml (Table 31)) was “yellow”, the “Colour of media in each well” value (ID 6, T = 23h, 37° C., plate configuration #2, drug 2 μg/ml (Table 31)) was “yellow” and the “Colour of media in each well” value (ID 6, T = 23h, 37° C., plate configuration #2, drug 4 μg/ml (Table 31)) was “yellow”. The “Colour of media in each well” value (ID 6, T~7 h, 37° C., plate configuration #2, Table 35, drug 0.05 μg/ml) was “yellow”, the “Colour of media in each well” value (ID 6, T~7 h, 37° C., plate configuration #2, Table 35, drug 0.1 μg/ml) was “yellow” and the “Colour of media in each well” value (ID 6, T~7 h, 37° C., plate configuration #2, Table 35, drug 0.5 μg/ml) was “yellow”. For the same compound, the “Colour of media in each well” value (ID 6, T~7 h, 37° C., plate configuration #2, Table 35, drug 1 μg/ml) was “yellow”, the “Colour of media in each well” value (ID 6, T~7 h, 37° C., plate configuration #2, Table 35, drug 2 μg/ml) was “yellow” and the “Colour of media in each well” value (ID 6, T~7 h, 37° C., plate configuration #2, Table 35, drug 4 μg/ml) was “yellow”. The “Colour of media in each well” value (ID 6, T~11 h, 37° C., plate configuration #2, Table 35, drug 0.05 μg/ml) was “yellow”, the “Colour of media in each well” value (ID 6, T~11 h, 37° C., plate configuration #2, Table 35, drug 0.1 μg/ml) was “yellow” and the “Colour of media in each well” value (ID 6, T~11 h, 37° C., plate configuration #2, Table 35, drug 0.5 μg/ml) was “yellow”. The “Colour of media in each well” value (ID 6, T~11 h, 37° C., plate configuration #2, Table 35, drug 1 μg/ml) was “yellow”, the “Colour of media in each well” value (ID 6, T~11 h, 37° C., plate configuration #2, Table 35, drug 2 μg/ml) was “yellow” and the “Colour of media in each well” value (ID 6, T~11 h, 37° C., plate configuration #2, Table 35, drug 4 μg/ml) was “yellow”. For the same compound, the “Colour of media in each well” value (ID 6, T~23 h, 37° C., plate configuration #2, Table 35, drug 0.05 μg/ml) was “yellow”, the “Colour of media in each well” value (ID 6, T~23 h, 37° C., plate configuration #2, Table 35, drug 0.1 μg/ml) was “yellow” and the “Colour of media in each well” value (ID 6, T~23 h, 37° C., plate configuration #2, Table 35, drug 0.5 μg/ml) was “yellow”. The “Colour of media in each well” value (ID 6, T~23 h, 37° C., plate configuration #2, Table 35, drug 1 μg/ml) was “yellow”, the “Colour of media in each well” value (ID 6, T~23 h, 37° C., plate configuration #2, Table 35, drug 2 μg/ml) was “yellow” and the “Colour of media in each well” value (ID 6, T~23 h, 37° C., plate configuration #2, Table 35, drug 4 μg/ml) was “yellow”. The “Colour of media in each well” value (ID 7, T = 23h, 37° C., plate configuration #2, drug 0.05 μg/ml) was “yellow”, the “Colour of media in each well” value (ID 7, T = 23h, 37° C., plate configuration #2, drug 0.1 μg/ml) was “yellow” and the “Colour of media in each well” value (ID 7, T = 23h, 37° C., plate configuration #2, drug 0.5 μg/ml) was “red”. For the same compound, the “Colour of media in each well” value (ID 7, T = 23h, 37° C., plate configuration #2, drug 1 μg/ml) was “red”, the “Colour of media in each well” value (ID 7, T = 23h, 37° C., plate configuration #2, drug 2 μg/ml) was “red” and the “Colour of media in each well” value (ID 7, T = 23h, 37° C., plate configuration #2, drug 4 μg/ml) was “red”. The “Colour of media in each well” value (ID 8, T = 23 h, 37° C., plate configuration #2, drug 0.05 μg/ml) was “yellow”, the “Colour of media in each well” value (ID 8, T = 23 h, 37° C., plate configuration #2, drug 0.1 μg/ml) was “yellow” and the “Colour of media in each well” value (ID 8, T = 23 h, 37° C., plate configuration #2, drug 0.5 μg/ml) was “red”. For the same compound, the “Colour of media in each well” value (ID 8, T = 23 h, 37° C., plate configuration #2, drug 1 μg/ml) was “red”, the “Colour of media in each well” value (ID 8, T = 23 h, 37° C., plate configuration #2, drug 2 μg/ml) was “red” and the “Colour of media in each well” value (ID 8, T = 23 h, 37° C., plate configuration #2, drug 4 μg/ml) was “red”. For the same compound, the “Colour of media in each well” value (Table 24, sample ID 2, 22 hours at 37° C., plate configuration #1, row 3 of serial dilution 4 ug/ml to 0.05 ug/ml) was “red”, the “Colour of media in each well” value (Table 24, sample ID 2, 22 hours at 37° C., plate configuration #1, row 4 of serial dilution 4 ug/ml to 0.05 ug/ml) was “red” and the “Colour of media in each well” value (Table 24, sample ID 2, 22 hours at 37° C., plate configuration #1, row 5 of serial dilution 4 ug/ml to 0.05 ug/ml) was “red”. For the same compound, the “Colour of media in each well” value (Table 24, sample ID 2, 22 hours at 37° C., plate configuration #1, row 6 of serial dilution 4 ug/ml to 0.05 ug/ml) was “red”, the “Colour of media in each well” value (Table 24, sample ID 2, 22 hours at 37° C., plate configuration #1, row 7 of serial dilution 4 ug/ml to 0.05 ug/ml) was “yellow” and the “Colour of media in each well” value (Table 24, sample ID 2, 22 hours at 37° C., plate configuration #1, row 8 of serial dilution 4 ug/ml to 0.05 ug/ml) was “yellow”. For the same compound, the MIC (clinical sample ID 1 (streptococci group D), 37° C. for 22 hours, plate configuration #1) was 0.5 µg/mL, the MIC (clinical sample ID 2 (streptococci group D, also coagulase positive Staph), 37° C. for 22 hours, plate configuration #1) was 0.5 µg/mL and the MIC (clinical sample ID 4 (coagulase positive Staph), 37° C. for 22 hours, plate configuration #1) was 0.5 µg/mL. It also gave an MIC (clinical sample ID 5 (streptococci group D), 37° C. for 23 hours, plate configuration #2) of 0.5 µg/mL, an MIC (clinical sample ID 7 (coagulase positive Staph), 37° C. for 23 hours, plate configuration #2) of 0.5 µg/mL and an MIC (clinical sample ID 8 (coagulase negative Staph and Streptococci group D), 37° C. for 23 hours, plate configuration #2) of 0.5 µg/mL.
